According to patent US8470770B2, “Antimicrobial agents” (priority 2007, dated 2013):
Converted amounts (≈) assume the structure as drawn. Bridge positions count the residues as written; N and C are the ends. Square brackets hold non-standard residues; d marks the D form. Ends that are not written are not given here. Peptide text beside a SMILES is read from it. 12Ado = NCCCCCCCCCCCC(=O)O

Key:
[1] = tested on: Pseudomonas aeruginosa (ATCC 9027); experiment: microbe, parasite or virus in culture; conditions: for MIC P.a.: ATCC 9027
Protocol: (§1) Minimal inhibitory concentrations (MICs) were determined by microdilution susceptibility testing in 96-well plates using inocula of 10^6 bacteria per ml.
(§2) Cell populations were evaluated by optical density measurements at 600 nm and were calibrated against a set of standards. Hundred (100) μl of a bacterial suspension were added to 100 μl of culture medium (control) or to 100 μl of culture medium containing various polymer concentrations in 2-fold serial dilutions.
(§3) Alternatively, MICs were determined using the microbroth dilution assay recommended by the Clinical and Laboratory Standards Institute (CLSI) using two-fold serial dilutions in cation-adjusted Mueller-Hinton broth (CAMHB).
“MIC P.a.” represents the minimal inhibitory concentration of each tested polymer in μM for P. aeruginosa, measured as described hereinabove for the antibacterial activity assay (column 7 in Table 3);

[2] = Hydrophobicity estimation by HPLC reversed-phase C18 elution; assay type: physicochemical; conditions: HPLC-RP C18, linear acetonitrile gradient 1% per minute
Protocol: HPLC chromatograms were performed on C18 columns (Vydak, 250 mm×4.6 or 10 mm) using a linear gradient of acetonitrile in water (1% per minute), both solvents contained 0.1% trifluoroacetic acid. The purified polymers were subjected to mass spectrometry (ZQ Waters) to confirm their composition and stored as a lyophilized powder at −20° C. Prior to being tested, fresh solutions were prepared in water, mixed by vortex, solubilized by ultrasound, centrifuged and then diluted in the appropriate medium.
In order to estimate the hydrophobicity of each polymer, the polymer was eluted with a linear gradient of acetonitrile (1% per minute) on an HPLC reversed-phase C18 column, and the percent of acetonitrile at which the polymer was eluted was used for hydrophobicity estimation (see, “ACN (%)” in Table 3 below).
“ACN (%)” represents the percent of acetonitrile in the HPLC-RP gradient mobile phase at which the polymer was eluted and which corresponds to the estimated hydrophobicity of the polymer (column 4 in Table 3);

[3] = tested on: Enterococcus faecalis (ATCC 29212); experiment: microbe, parasite or virus in culture; assay type: cell-based
[4] = tested on: Escherichia coli (ATCC 35218); experiment: microbe, parasite or virus in culture; conditions: for MIC E.c.: ATCC 35218
Protocol: as §1, §2, §3
“MIC E.c.” represents the minimal inhibitory concentration of each tested polymer in μM for E. coli, measured as described hereinabove in the antibacterial activity assay (column 5 in Table 3);

[5] = tested on: methicillin resistant Staphylococcus aureus (CI 15903); experiment: microbe, parasite or virus in culture; conditions: for MIC: Staphylococcus aureus, read-out: MIC MR S.a.; for MIC MR S.a.: methicillin resistant (CI 15903)
Protocol: as §1, §2, §3
“MIC MR S.a.” represents the minimal inhibitory concentration of each tested polymer in μM for methicillin-resistant S. aureus, measured as described hereinabove for the antibacterial activity assay of antibiotic-resistant bacteria (column 8 in Table 3);

[6] = tested on: Bacillus cereus (ATCC 11778)
Protocol: as §1, §2, §3
“MIC B.c.” represents the minimal inhibitory concentration of each tested polymer in μM for Bacillus cereus, measured as described hereinabove for the antibacterial activity assay (column 9 in Table 3); and […]

| Compound | MIC P.a. [1] | ACN (%) (percent of acetonitrile at which the polymer was eluted; estimated hydrophobicity) [2] | MIC ([3]; ATCC 29212) | MIC E.c. [4] | MIC MR S.a. [5] | further results |
| --- | --- | --- | --- | --- | --- | --- |
| NCCCCC1NC(=O)CCCCCCCCCCCNC(=O)C(CCCCN)NC(=O)C(CCCCN)NC(=O)CCCCCCCCCCCNC1=O (stereo not shown) [Polymer 9, Cyclic-NC12KKNC12K] (cyclo([12Ado]K[12Ado]KK); configuration not given here) | 50 µM (≈ 39 µg/mL) | 42.7% | 25 µM (≈ 19.5 µg/mL) |  |  |  |
| CN(C)[C@@H]1C(O)=C(C(N)=O)C(=O)[C@@]2(O)C(O)=C3C(=O)c4c(O)cccc4[C@@](C)(O)[C@H]3C[C@@H]12 [Ref. 7, Tetracycline, reference compound] |  |  |  |  |  | MIC ([4]; Escherichia coli, ATCC35218, read-out: MIC E.c.): 1.8 µM (≈ 0.8 µg/mL); MIC ([1]; Pseudomonas aeruginosa, ATCC9027, read-out: MIC P.a.): > 50 µM; MIC [5]: 0.4 µM (≈ 0.178 µg/mL) |
| NCCCC[C@@H]1NC(=O)CCCCCCCCCCCNC(=O)[C@H](CCCCN)NC(=O)CCCCCCCCCCCNC(=O)[C@H](CCCCN)NC(=O)CCCCCCCCCCCNC(=O)[C@H](CCCCN)NC(=O)[C@H](CCCCN)NC(=O)CCCCCCCCCCCNC(=O)[C@H](CCCCN)NC(=O)CCCCCCCCCCCNC1=O [Polymer 2, Cyclic-K(NC12K)5] (cyclo(K[12Ado]K[12Ado]K[12Ado]K[12Ado]K[12Ado]K)) | 12.5 µM (≈ 21.9 µg/mL) | 46.6% | 6.25 µM (≈ 11 µg/mL) | 12.5 µM (≈ 21.9 µg/mL) | 6.25 µM (≈ 11 µg/mL) |  |
| CCCCCCCCCCCC(=O)NCCCCC(N)C(=O)NCCCCCCCCCCCC(=O)NCCCCC(N)C(N)=O (stereo not shown) [Polymer 13, C12K(ε)NC12K(ε)NH2] | >50 µM | 54.4% | 12.5 µM (≈ 8.16 µg/mL) | 12.5 µM (≈ 8.16 µg/mL) | 12.5 µM (≈ 8.16 µg/mL) |  |
| NCCCC[C@@H]1NC(=O)CCCCCCCCCCCNC(=O)[C@H](CCCCN)NC(=O)[C@H](CCCCN)NC(=O)CCCCCCCCCCCNC(=O)[C@H](CCCCN)NC(=O)[C@H](CCCCN)NC(=O)CCCCCCCCCCCNC(=O)[C@H](CCCCN)NC1=O [Polymer 8, Cyclic-(KNC12K)3] (cyclo(K[12Ado]KK[12Ado]KK[12Ado]K)) | 12.5 µM (≈ 17 µg/mL) | 41.7% | 25 µM (≈ 34 µg/mL) | 25 µM (≈ 34 µg/mL) | 25 µM (≈ 34 µg/mL) |  |
| NCCCC[C@@H]1NC(=O)CCCCCCCCCCCNC(=O)[C@H](CCCCN)NC(=O)[C@H](CCCCN)NC(=O)CCCCCCCCCCCNC(=O)[C@H](CCCCN)NC(=O)[C@H](CCCCN)NC(=O)CCCCCCCCCCCNC1=O [Polymer 10, Cyclic-NC12K(KNC12K)2] (cyclo([12Ado]KK[12Ado]KK[12Ado]K)) | 12.5 µM (≈ 15.4 µg/mL) | 43.1% | 6.25 µM (≈ 7.71 µg/mL) | 12.5 µM (≈ 15.4 µg/mL) | 12.5 µM (≈ 15.4 µg/mL) |  |
| NCCCCC1NC(=O)CCCCCCCCCCCNC(=O)C(CCCCN)NC(=O)CCCCCCCCCCCNC(=O)C(CCCCN)NC(=O)CCCCCCCCCCCNC(=O)C(CCCCN)NC(=O)CCCCCCCCCCCNC(=O)C(CCCCN)NC(=O)CCCCCCCCCCCNC1=O (stereo not shown) [Polymer 6, Cyclic-(NC12K)5] | 50 µM (≈ 81.4 µg/mL) | 47.7% |  |  |  | MIC B.c [6]: >50 µM |
| CC[C@H](C)[C@H](NC(=O)[C@H](CCCCN)NC(=O)[C@H](CCC(=O)O)NC(=O)[C@H](CCCCN)NC(=O)[C@H](CO)NC(=O)[C@H](CCCCN)NC(=O)[C@H](CCCNC(=N)N)NC(=O)[C@H](Cc1ccccc1)NC(=O)[C@H](Cc1ccccc1)NC(=O)[C@H](CC(=O)O)NC(=O)CNC(=O)[C@H](CC(C)C)NC(=O)[C@@H](N)CC(C)C)C(=O)NCC(=O)N[C@@H](CCCCN)C(=O)N[C@@H](CCC(=O)O)C(=O)N[C@@H](Cc1ccccc1)C(=O)N[C@@H](CCCCN)C(=O)N[C@@H](CCCNC(=N)N)C(=O)N[C@H](C(=O)N[C@H](C(=O)N[C@@H](CCC(N)=O)C(=O)N[C@@H](CCCNC(=N)N)C(=O)N[C@H](C(=O)N[C@@H](CCCCN)C(=O)N[C@@H](CC(=O)O)C(=O)N[C@@H](Cc1ccccc1)C(=O)N[C@@H](CC(C)C)C(=O)N[C@@H](CCCNC(=N)N)C(=O)N[C@@H](CC(N)=O)C(=O)N[C@@H](CC(C)C)C(=O)N[C@H](C(=O)N1CCC[C@H]1C(=O)N[C@@H](CCCNC(=N)N)C(=O)N[C@H](C(=O)N[C@@H](CCC(=O)O)C(=O)N[C@@H](CO)C(=O)O)[C@@H](C)O)C(C)C)[C@@H](C)CC)C(C)C)[C@@H](C)CC [Ref. 4, LL37, reference compound] |  | 61% |  |  |  | MIC ([3]; Enterococcus faecalis): 37.5 µM (≈ 169 µg/mL) |
| GIGKFLKKAKKFGKAFVKILKK-NH2 (C-terminus assumed) [Ref. 1, MSI-78, reference compound] |  | 44% | 37.5 µM |  |  |  |
| NCCCCC1NC(=O)CCCCCCCCCCCNC(=O)C(CCCCN)NC(=O)CCCCCCCCCCCNC(=O)C(CCCCN)NC(=O)CCCCCCCCCCCNC(=O)C(CCCCN)NC(=O)CCCCCCCCCCCNC1=O (stereo not shown) [Polymer 5, Cyclic-(NC12K)4] | >50 µM | 47.4% |  | >50 µM | >50 µM | MIC B.c [6]: >50 µM |
| NCCCC[C@@H]1NC(=O)CCCCCCCCCCCNC(=O)[C@H](CCCCN)NC(=O)[C@H](CCCCN)NC(=O)[C@H](CCCCN)NC(=O)CCCCCCCCCCCNC(=O)[C@H](CCCCN)NC1=O [Polymer 11, Cyclic-KNC12KKKNC12K] (cyclo(K[12Ado]KKK[12Ado]K)) | 12.5 µM (≈ 12.9 µg/mL) | 38% | >50 µM | >50 µM | >50 µM |  |
| NCCCC[C@@H]1NC(=O)CCCCCCCCCCCNC(=O)[C@H](CCCCN)NC(=O)[C@H](CCCCN)NC(=O)[C@H](CCCCN)NC(=O)CCCCCCCCCCCNC(=O)[C@H](CCCCN)NC(=O)[C@H](CCCCN)NC1=O [Polymer 12, Cyclic-KNC12KKKNC12KK] (cyclo(K[12Ado]KKK[12Ado]KK)) | >50 µM | 35% | >50 µM | >50 µM | >50 µM |  |
| NCCCCC1NC(=O)CCCCCCCCCCCNC(=O)C(CCCCN)NC(=O)CCCCCCCCCCCNC(=O)C(CCCCN)NC(=O)CCCCCCCCCCCNC1=O (stereo not shown) [Polymer 4, Cyclic-(NC12K)3] | >50 µM | 47.0% |  | >50 µM | 12.5 µM (≈ 12.2 µg/mL) | MIC B.c [6]: >50 µM |
| NCCCCC1NC(=O)CCCCCCCCCCCNC(=O)C(CCCCN)NC(=O)CCCCCCCCCCCNC1=O (stereo not shown) [Polymer 3, Cyclic-(NC12K)2] | >50 µM | 49.7% | >50 µM |  |  |  |
| C[C@@H](O)[C@H]1C(=O)N2C(C(=O)O)=C(SCCN=CN)C[C@H]12 [Ref. 6, Imipenem, reference compound] |  |  |  |  |  | MIC [5]: > 50 µM; MIC ([3]; Enterococcus faecalis, ATCC29212): < 0.03 µM |
| CC(C)C[C@H](NC(=O)CNC(=O)CNC(=O)[C@@H](N)CCCNC(=N)N)C(=O)N[C@H]1CSSC[C@@H](C(=O)N[C@H](C(=O)NCC(=O)N[C@@H](CCCNC(=N)N)C(N)=O)C(C)C)NC(=O)[C@H](C(C)C)NC(=O)[C@@H]2CSSC[C@H](NC(=O)[C@H](Cc3ccc(O)cc3)NC1=O)C(=O)N[C@@H](CCCNC(=N)N)C(=O)NCC(=O)N[C@@H](CCCNC(=N)N)C(=O)N[C@@H](Cc1ccccc1)C(=O)N2 [Ref. 2, IB-367, reference compound] (H-RGGLCYCRGRFCVCVGR-NH2; disulfide 5-14, 7-12) |  | 45% |  |  |  |  |
| NCCCCC1NC(=O)CCCCCCCCCCCNC(=O)C(CCCCN)NC(=O)C(CCCCN)NC(=O)CCCCCCCCCCCNC(=O)C(CCCCN)NC1=O (stereo not shown) [Polymer 7, Cyclic-(KNC12K)2] (cyclo([12Ado]KK[12Ado]KK); configuration not given here) | 25 µM (≈ 22.7 µg/mL) | 40.7% | 50 µM (≈ 45.4 µg/mL) |  |  |  |
| ALWKTLLKKVLKAAAK-NH2 (C-terminus assumed) [Ref. 3, K4S4(1-16), reference compound] |  | 47% | 3.1 µM |  |  |  |
